“And” between values parts separate entries of the source, which are not always exact repeats. Equal values may be shown once.
Assays:
BUBR1 mRNA = BUBR1 mRNA stability assay with Actinomycin D; type: cell-based, human; details: HGADFN003 cells, UPCP together with Act D
Experimental: RNA preparation was performed as described. Total RNA was extracted using Trizol reagent (TaKaRa) following the manufacturer’s instructions. cDNA was generated with M-MLV reverse transcriptase (Promega, catalog no. M170B). Reverse transcription with PCR (RT-PCR) was performed with SYBR Green Real-Time PCR Master Mix (TaKaRa). RT-PCR was carried out on a QuantStudio 3 Real-Time-PCR Instrument (ABI). Data were analyzed and further processed in QuantStuido Design and Analysis Software and GraphPad Prism v.7. Fold change in gene expression over control samples was calculated using the 2^–ΔΔCt method, where β-actin Ct values were used as an internal control. The primer sequences for PCR, synthesized by Comate Bioscience, were as follows: […]

[1] = test system: heart of Lmna^G609G/G609G mice; experiment: Masson staining of heart (fibrosis); type: in vivo, mouse; details: 13 weeks
Experimental: (§1) For UPCP injection, 14-day-old Lmna^G609G/G609G mice were injected intraperitoneally with either PBS or UPCP (20 mg kg^–1, every other day) and wild-type mice were injected with PBS. […] Bodyweight and lifespan were monitored after UPCP treatment. The survival rate was analyzed by the Kaplan–Meier method. We only included mice that were of sufficient bodyweight at the start of the experiment, typically at least 80% of the average littermate weight of the same sex and genotype. All animals meeting criteria for inclusion were then divided randomly into three groups according to genotype (Lmna^+/+, Lmna^G609G/G609G-Mock and Lmna^G609G/G609G-UPCP).
(§2) For histological analyses, mice of the indicated genotypes were perfused with PBS, then with 4% paraformaldehyde (PFA). Whole organs were incubated in 4% PFA at 4 °C for 16 h. All samples were paraffin embedded and sectioning by Servicebio. Subsequently, the tissues were deparaffinized and rehydrated before hematoxylin-eosin (HE) or Masson staining or immunohistochemistry (IHC). HE staining was performed using an HE Kit (Absin, catalog no. abs9217), and Masson staining was performed using Masson’s Trichrome Stain Kit (Absin, catalog no. abs9347) according to the manufacturer’s instructions. The thickness of the layers or the areas of fibrosis in the tissues were calculated using ImageJ software by a blinded investigator. For IHC, the sections were completed by the Servicebio. The images were acquired by a microscope (Leica DMi8) and analyzed with Leica Application Suite X v.3.6.0.24 (Leica). For BubR1, cytoplasmic staining in cells was scored on the intensity of staining and the proportion of positive cells by a blinded investigator. The intensity of the staining was graded as 0 (negative, no color), 1 (low positive, light yellow), 2 (positive, brown yellow) or 3 (high positive, brown), and the number of positive cells was graded as 0 (<5%), 1 (5–25%), 2 (25–50%), 3 (51–75%) or 4 (>75%). The final score was defined as staining number score multiplied by staining color score. For lamin B1, p21 or IL-6, the proportion of positive cells was used to quantify the expression of protein in tissues by a blinded investigator.

[2] = test system: BUBR1 binding to BUB3 and CDC20; experiment: CoIP of BUBR1 and SAC proteins BUB3 and CDC20 in HEK-293T cells; type: cell-based; details: UPCP 18 μM, nocodazole 200 ng ml^–1
Experimental: Detailed descriptions of CoIP were described previously[55],[56]. Cells were harvested and washed three times in cold PBS, then lysed in CoIP buffer (25 mM Tris-HCl (pH 7.5), 150 mM KCl, 5 mM EDTA, and 0.5% NP-40) plus protease inhibitor cocktail tablet (Roche). Incubate on ice and shock lysates on the vortex shaker 15 times for 30 s each. Microcentrifuge in 12,000g for 15 min at 4 °C, collect the supernatant, and incubate with 3 μg primary antibodies with gentle shaking overnight at 4 °C, followed by adding 20–40 μl Pure Proteome Protein A/G Mix Magnetic Beads (Millipore, catalog no. […]02) for 3 h. Wash the beads three times with 1 ml CoIP buffer for 8 min each, resuspend in 50 μl 1× loading buffer, and incubate at 100 °C for 8 min. Throw beads away and analyze by immunoblotting.

IMR90 cells = experiment: Etoposide-, Ras- and H2O2-induced early stage senescence of IMR90 cells; type: cell-based, human; details: IMR90, UPCP 6 μM, another 5 days; SA-β-gal, Ki67, Western blot
Source text: HGPS is an extremely rare congenital genetic disease, and its treatments are still under theoretical research. […] Also, to investigate the role of UPCP on other senescence models, we used Etoposide, Ras or H2O2 to induce senescence of IMR90 cells, and added UPCP to the cells treated with the drugs mentioned above when the cells just entered early stage senescence. […] Further work aimed at obtaining UPCPs with stronger stability, longer half-life and optimized physical structures are under planning. Therefore, UPCP may have broad application prospects in the treatment of HGPS.
SA-β-gal positive cells was calculated (c). Scale bars: 200 μm. d. Western blot analysis of Lamin B1, CyclinA2, IL-6 and p21 in senescent IMR90 cells with the indicated treatments. e,f.
Immunofluorescence analysis of Ki67 in IMR90 cells with the indicated treatment. Representative […]
≥ 200 cells. Scale bars: 50 μm. For bar and line graphs, data are presented as mean ± SD.
Statistical significance was determined in c and f using two-tailed unpaired Student’s t-test.
Supplementary Data Figure 2. UPCP delays Etoposide, Ras and H2O2 induced early stage cellular senescence. a. […]
and the percentage of the Ki67 positive cells was calculated (f), n ≥ 200 cells. […]
For bar and line graphs, data are presented as mean ± SD. Statistical significance was determined inc and f using two-tailed unpaired Student’s t-test.

[3] = test system: esophagus of Lmna^G609G/G609G mice; experiment: Masson staining of esophagus (lamina propria); type: in vivo, mouse; details: 13 weeks; for aortic adventitia, mean / aortic adventitia: 20 mg kg^–1 i.p.
Experimental: as §1, §2

[4] = 20 mg kg^–1 i.p. every other day

Substance: H-YGRKKRRQRRRYNLRSRTVLCGTCGQPADKASASGSGAQSPQNCSIM-OH (cysteines drawn unpaired) [UPCP, unique progerin C-terminal peptide]
- BUBR1 mRNA level with Act D (BUBR1 mRNA): mRNA levels of BUBR1 were significantly increased
- fibrosis, heart [1, 4]: reduced fibrosis of lamina propria in the esophagus and heart
- fibrosis area/ total area, heart ([1]; 20 mg kg^–1 i.p., replicate 1): 0.003612 and 0.3612%
- fibrosis area, heart ([1]; 20 mg kg^–1 i.p., replicate 1, total area 1.938): 0.007
- fibrosis area, heart ([1]; 20 mg kg^–1 i.p., replicate 2, total area 1.976): 0.002
- fibrosis area, heart ([1]; 20 mg kg^–1 i.p., replicate 3, total area 2.43): 0.004
- binding of BUBR1 to SAC proteins (BUB3 or CDC20) [2]: did not block the binding of BUBR1 to other proteins such as PTBP1 or other SAC proteins (BUB3 or CDC20)
- etoposide-, ras- and H2O2-induced early stage cellular senescence (IMR90 cells): delayed etoposide-, ras- and H2O2-induced early stage cellular senescence modestly
- fibrosis of lamina propria, esophagus [3, 4]: reduced fibrosis of lamina propria in the esophagus and heart
- thickness of lamina propria, esophagus [3, 4]: decreased the thickness of the lamina propria in the esophagus
- aortic adventitia, mean ([3]; sample 1, mean of 3 measurements): 9.139 μm
- aortic adventitia ([3]; sample 1, measurement 1): 9.452 μm
- aortic adventitia ([3]; sample 1, measurement 2): 8.478 μm
- aortic adventitia ([3]; sample 1, measurement 3): 9.488 μm
- aortic adventitia, mean ([3]; sample 2, mean of 3 measurements): 9.054 μm
- aortic adventitia ([3]; sample 2, measurement 1): 9.392 μm
- aortic adventitia ([3]; sample 2, measurement 2): 8.624 μm
- aortic adventitia ([3]; sample 2, measurement 3): 9.147 μm
- aortic adventitia, mean ([3]; sample 3, mean of 3 measurements): 10.936 μm
- aortic adventitia ([3]; sample 3, measurement 1): 10.5409 μm
- aortic adventitia ([3]; sample 3, measurement 2): 9.16 μm
- aortic adventitia ([3]; sample 3, measurement 3): 13.1073 μm
